In this assay the target is PI3Kδ kinase (Homo sapiens, UniProt O00329). In words: In vitro pharmacodynamics evaluation to PI3K kinases.
Chain of PI3Kδ kinase (O00329 whole entry): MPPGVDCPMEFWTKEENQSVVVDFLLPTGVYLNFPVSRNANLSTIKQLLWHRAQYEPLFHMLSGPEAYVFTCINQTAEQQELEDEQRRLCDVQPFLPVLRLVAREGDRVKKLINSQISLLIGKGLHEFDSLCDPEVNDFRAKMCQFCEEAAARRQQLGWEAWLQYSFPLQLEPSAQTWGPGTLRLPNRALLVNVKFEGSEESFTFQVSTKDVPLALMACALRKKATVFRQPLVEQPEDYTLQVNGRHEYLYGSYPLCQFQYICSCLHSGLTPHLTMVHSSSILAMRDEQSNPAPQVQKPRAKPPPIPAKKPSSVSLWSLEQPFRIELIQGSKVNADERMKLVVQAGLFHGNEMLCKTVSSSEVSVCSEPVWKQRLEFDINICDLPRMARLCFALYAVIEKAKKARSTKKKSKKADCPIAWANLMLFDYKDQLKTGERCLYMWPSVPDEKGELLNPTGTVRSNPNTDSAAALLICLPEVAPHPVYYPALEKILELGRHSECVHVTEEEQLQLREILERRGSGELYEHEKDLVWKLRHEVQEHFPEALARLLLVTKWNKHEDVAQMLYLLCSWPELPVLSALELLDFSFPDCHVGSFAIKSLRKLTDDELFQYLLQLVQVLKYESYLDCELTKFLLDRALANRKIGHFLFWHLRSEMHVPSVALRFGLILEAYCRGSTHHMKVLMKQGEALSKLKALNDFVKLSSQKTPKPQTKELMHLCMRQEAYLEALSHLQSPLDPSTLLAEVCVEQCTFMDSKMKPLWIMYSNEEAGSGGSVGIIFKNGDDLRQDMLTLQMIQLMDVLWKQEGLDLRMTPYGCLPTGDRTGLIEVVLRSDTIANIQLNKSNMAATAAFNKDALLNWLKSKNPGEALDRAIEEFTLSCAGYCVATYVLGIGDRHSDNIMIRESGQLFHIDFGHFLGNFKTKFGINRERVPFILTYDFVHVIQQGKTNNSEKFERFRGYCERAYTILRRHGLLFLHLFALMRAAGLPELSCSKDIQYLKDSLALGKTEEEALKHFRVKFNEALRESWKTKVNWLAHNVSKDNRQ
Chain of PI3Kδ kinase (P27986 whole entry partner): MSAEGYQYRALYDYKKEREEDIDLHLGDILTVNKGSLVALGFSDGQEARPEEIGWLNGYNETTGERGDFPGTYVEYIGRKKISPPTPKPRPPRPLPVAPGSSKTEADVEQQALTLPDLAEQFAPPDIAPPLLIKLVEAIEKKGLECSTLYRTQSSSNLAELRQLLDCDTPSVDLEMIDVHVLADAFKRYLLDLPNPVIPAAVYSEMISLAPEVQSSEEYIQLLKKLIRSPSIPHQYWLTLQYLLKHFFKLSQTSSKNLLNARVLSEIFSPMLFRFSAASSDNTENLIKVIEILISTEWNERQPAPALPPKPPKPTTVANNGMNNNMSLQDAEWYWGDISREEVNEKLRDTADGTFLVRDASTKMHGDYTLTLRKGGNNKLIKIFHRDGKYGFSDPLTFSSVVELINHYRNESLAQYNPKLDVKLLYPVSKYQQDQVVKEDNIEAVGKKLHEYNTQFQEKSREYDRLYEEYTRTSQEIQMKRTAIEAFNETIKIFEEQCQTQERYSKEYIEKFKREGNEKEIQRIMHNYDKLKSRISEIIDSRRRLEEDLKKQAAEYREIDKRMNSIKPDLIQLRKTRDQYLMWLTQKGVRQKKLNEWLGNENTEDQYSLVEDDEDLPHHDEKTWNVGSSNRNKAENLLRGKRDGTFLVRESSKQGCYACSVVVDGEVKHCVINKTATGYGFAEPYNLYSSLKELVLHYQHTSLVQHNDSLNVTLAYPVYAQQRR
Consider `[2H][C@@](C)(Nc1ncnc2[nH]cnc12)c1nc2ccc(F)cc2c(=O)n1-c1ccccc1` [Example 8, (S)-2-(1-(9H-purin-6-yl-amino)-1-d-ethyl)-6-fluoro-3-phenyl quinazoline-4(3H)-ketone], for which the IC50 (commonly the point on the concentration scale where inhibition reaches its midpoint) is less than 20 nM.

`[2H]C([2H])([2H])[C@]([2H])(Nc1ncnc2[nH]cnc12)c1nc2ccc(F)cc2c(=O)n1-c1ccccc1` [Example 9, (S)-2-(1-(9H-purin-6-yl-amino)-1,2,2,2-d4-ethyl)-6-fluoro-3-phenyl quinazoline-4(3H)-ketone] showed a half-inhibitory concentration (IC50) of less than 20 nM.

The compound `[2H]C([2H])([2H])[C@H](Nc1ncnc2[nH]cnc12)c1nc2ccc(F)cc2c(=O)n1-c1ccccc1` [Example 10, (S)-2-(1-(9H-purin-6-yl-amino)-2,2,2-d3-ethyl)-6-fluoro-3-phenyl quinazoline-4(3H)-ketone] came in with an IC50 of less than 20 nM.

The record behind these values is patent US10414767B2, “Deuterated quinazolinone compound and pharmaceutical composition comprising same” (Suzhou Zelgen Biopharmaceuticals Co., Ltd., priority 2014, dated 2019).
